Where no end group is shown, it is not given here.
Assays:
Assay type in all cases: cell-based, human
TISI cells (HLA-A24/24) = test: In vitro CTL induction and 51Cr-release cytotoxicity assay against peptide-loaded TISI cells
From the text: Monocyte-derived dendritic cells (DCs) were used as antigen-presenting cells (APCs) to induce CTLs against peptides presented on HLA. DCs were generated in vitro as described elsewhere (Nukaya I, et al., Int J Cancer. 1999; 80(1):92-7; Tsai V, et al., J Immunol. 1997; 158(4):1796-802). Briefly, peripheral blood mononuclear cells (PBMCs) were isolated from normal volunteers ((HLA-A24) by Ficoll-Paque (Pharmacia) solution and separated by adherence to a plastic tissue culture flask (Becton Dickinson) so as to enrich them for the monocyte fraction. The monocyte-enriched population was cultured in the presence of 1,000 U/ml of GM-CSF (provided by Kirin Brewery Company) and 1,000 U/ml of IL-4 (Genzyme) in AIM-V (Invitrogen) containing 2% heat-inactivated autologous serum (AS). After 7 days in the culture, the cytokine-generated DCs were loaded with 20 μg/ml of HLA-A24-binding peptides in the presence of 3 μg/ml of β2-microglobulin for 4 hrs at 20° C. in AIM-V. These peptide-loaded DCs were then irradiated (5,500 rad) and mixed at a 1:20 ratio with autologous CD8+ T cells, obtained by positive selection with Dynabeads M-450 CD8 (Dynal) and Detachabead (Dynal). This mixture was subdivided and aliquots were incubated in 48-well plates (Corning); each well contained 1.5×10^4 peptide-loaded DCs and 3×10^5 CD8+ T cells in 0.5 ml of AIM-V/2% AS containing 10 ng/ml of IL-7 (Genzyme). Three days later, these cultures were supplemented with IL-2 (CHIRON) to a final concentration of 20 IU/ml. On day 7 and 14, the T cells were further restimulated with the autologous peptide-loaded DCs. The DCs were prepared each time by the same way as described above. Cytotoxicity was tested against peptide-loaded TISI cells after the 3rd round of peptide stimulation on day 21. […]
Target cells were labeled with 100 μCi of Na2^51CrO4 (Perkin Elmer Life Sciences) for 1 hr at 37° C. in a CO2 incubator. […] After 4 hrs of incubation, 0.1 ml of the supernatant was collected from each well and the radioactivity was determined with a gamma counter. […]

HT29 = test: 51Cr-release cytotoxicity of CTL clones against HT29 cells endogenously expressing TOM34; conditions: HT29, expresses TOM34 and HLA-A24
Method: (§1) Target cells were labeled with 100 μCi of Na2^51CrO4 (Perkin Elmer Life Sciences) for 1 hr at 37° C. in a CO2 incubator. Peptide-loaded target cells were prepared by incubating the cells with 20 μg/ml of the peptide for 16 hrs at 37° C. before labeling. Labeled target cells were rinsed and mixed with effector cells in a final volume of 0.2 ml in round-bottom microtiter plates. The plates were centrifuged (4 minutes at 800×g) to increase cell-to-cell contact and placed in a CO2 incubator at 37° C. After 4 hrs of incubation, 0.1 ml of the supernatant was collected from each well and the radioactivity was determined with a gamma counter. In case of evaluating cytotoxicity for target cells that endogenously express TOM34, the cytolytic activity was tested in the presence of 30-fold excess of unlabeled K562 cells to eliminate any non-specific lysis due to NK-like effectors. […]
(§2) The percentage of specific cytotoxicity was determined by calculating the percentage of specific ^51Cr-release by the following formula: {(cpm of the test sample release−cpm of the spontaneous release)/(cpm of the maximum release−cpm of the spontaneous release)}×100. Spontaneous release was determined by incubating the target cells alone, in the absence of effector cells, and the maximum release was obtained by incubating the targets with 1N HCl. […]

SNU-C2A = test: 51Cr-release cytotoxicity of CTL clones against SNU-C2A cells (TOM34 positive, HLA-A24 negative); conditions: expresses TOM34 but not HLA-A24
Method: as §1, §2

DLD-1 = test: 51Cr-release cytotoxicity of CTL clones against DLD-1 cells endogenously expressing TOM34; conditions: DLD-1, expresses TOM34 and HLA-A24
Method: as §1, §2

HT29 cells = test: Cold target inhibition assay; conditions: E/T ratio 20; TISI with or without loaded peptide
Method: FIG. 9 depict HLA specificity of the CTL clones raised by TOM34-299. The CTL clone raised by TOM34-299 specifically recognizes TOM34 in the HLA-A24 restricted manner. • The cold target inhibition assay was performed as described in “Materials and Methods”. HT29 cells labeled by Na2^51CrO4 were prepared as hot target, while TISI cells with or without loaded TOM34-299 peptide were used without ^51Cr labeling as cold targets. E/T ratio was fixed at 20.
as §1

KLRQEVKQNL [KLRQEVKQNL]
cytotoxic activity of CTL lines against the peptide-loaded target (TISI cells (HLA-A24/24); CTL lines stimulated by the peptide, TISI loaded with peptide): potent cytotoxic activity | cytotoxic activity of CTL lines against targets not loaded with the peptide (TISI cells (HLA-A24/24); TISI without loaded peptide): without showing any significant cytotoxic activity | E/T ratio at which antigen-specific cytotoxicity of CTL lines is detectable (TISI cells (HLA-A24/24); as low as): 1.2 | cytotoxic activity of two CTL clones (HT29): potent cytotoxic activity | cytotoxic activity of two CTL clones (SNU-C2A): neither of the two CTL clones showed any relevant cytotoxic activity | cytotoxic activity of two CTL clones (DLD-1): potent cytotoxic activity | cytotoxic activity of CTL clone against HT29 in presence of cold target TISI cells (HT29 cells): inhibited by the addition of TISI cells only when loaded with the peptide
